{
  "source": "ChEMBL document CHEMBL4184317",
  "about": "“Discovery of Tetrahydroquinoxalines as Bromodomain and Extra-Terminal Domain (BET) Inhibitors with Selectivity for the Second Bromodomain” (J Med Chem, 2018)",
  "key": {"[1]": {"target": "T1, Bromodomain-containing protein 3 (Homo sapiens, UniProt Q15059)", "assay": "Inhibition of BRD3 BD1 (unknown origin) after 30 mins by TR-FRET assay"}, "[2]": {"assay": "Permeability of the compound by PAMPA", "type": "ADME", "conditions": "read-out: permeability"}, "[3]": {"assay": "Solubility of the compound in pH 7.4 phosphate buffered saline by chemiluminescent nitrogen detection method", "type": "physicochemical"}, "[4]": {"assay": "Solubility of the compound in FaSSIF at pH 6.5 after 16 hrs by HPLC method", "type": "physicochemical"}, "Blood": {"system": "Blood", "assay": "Antiinflammatory activity in human whole blood assessed as inhibition of LPS-induced MCP1 release preincubated for 30 mins followed by LPS challenge measured after 24 hrs by immunoassay", "type": "functional, tissue-based"}, "[5]": {"target": "Bromodomain-containing protein 4 (Homo sapiens, UniProt O60885)", "assay": "Binding affinity to human partial length DNA-tagged BRD4 isoform long BD2 expressed in bacterial by BROMOscan method"}, "[6]": {"target": "T2, Bromodomain-containing protein 2 (Homo sapiens, UniProt P25440)", "assay": "Binding affinity to human partial length DNA-tagged BRD2 isoform 1 BD1 expressed in bacterial by BROMOscan method"}, "[7]": {"target": "T1, Bromodomain-containing protein 3", "assay": "Binding affinity to human partial length DNA-tagged BRD3 BD1 expressed in bacterial by BROMOscan method"}, "[8]": {"target": "T1, Bromodomain-containing protein 3", "assay": "Binding affinity to human partial length DNA-tagged BRD3 BD2 expressed in bacterial by BROMOscan method"}, "[9]": {"target": "Transcription initiation factor TFIID subunit 1 (Homo sapiens, UniProt P21675)", "assay": "Binding affinity to human partial length DNA-tagged TAF1 BD2 expressed in bacterial by BROMOscan method"}, "[10]": {"target": "Bromodomain adjacent to zinc finger domain protein 2A (Homo sapiens, UniProt Q9UIF9)", "assay": "Binding affinity to human partial length DNA-tagged BAZ2A expressed in bacterial by BROMOscan method"}, "[11]": {"target": "Bromodomain adjacent to zinc finger domain protein 2B (Homo sapiens, UniProt Q9UIF8)", "sequence (Q9UIF8 whole entry, the tested form may be a part)": "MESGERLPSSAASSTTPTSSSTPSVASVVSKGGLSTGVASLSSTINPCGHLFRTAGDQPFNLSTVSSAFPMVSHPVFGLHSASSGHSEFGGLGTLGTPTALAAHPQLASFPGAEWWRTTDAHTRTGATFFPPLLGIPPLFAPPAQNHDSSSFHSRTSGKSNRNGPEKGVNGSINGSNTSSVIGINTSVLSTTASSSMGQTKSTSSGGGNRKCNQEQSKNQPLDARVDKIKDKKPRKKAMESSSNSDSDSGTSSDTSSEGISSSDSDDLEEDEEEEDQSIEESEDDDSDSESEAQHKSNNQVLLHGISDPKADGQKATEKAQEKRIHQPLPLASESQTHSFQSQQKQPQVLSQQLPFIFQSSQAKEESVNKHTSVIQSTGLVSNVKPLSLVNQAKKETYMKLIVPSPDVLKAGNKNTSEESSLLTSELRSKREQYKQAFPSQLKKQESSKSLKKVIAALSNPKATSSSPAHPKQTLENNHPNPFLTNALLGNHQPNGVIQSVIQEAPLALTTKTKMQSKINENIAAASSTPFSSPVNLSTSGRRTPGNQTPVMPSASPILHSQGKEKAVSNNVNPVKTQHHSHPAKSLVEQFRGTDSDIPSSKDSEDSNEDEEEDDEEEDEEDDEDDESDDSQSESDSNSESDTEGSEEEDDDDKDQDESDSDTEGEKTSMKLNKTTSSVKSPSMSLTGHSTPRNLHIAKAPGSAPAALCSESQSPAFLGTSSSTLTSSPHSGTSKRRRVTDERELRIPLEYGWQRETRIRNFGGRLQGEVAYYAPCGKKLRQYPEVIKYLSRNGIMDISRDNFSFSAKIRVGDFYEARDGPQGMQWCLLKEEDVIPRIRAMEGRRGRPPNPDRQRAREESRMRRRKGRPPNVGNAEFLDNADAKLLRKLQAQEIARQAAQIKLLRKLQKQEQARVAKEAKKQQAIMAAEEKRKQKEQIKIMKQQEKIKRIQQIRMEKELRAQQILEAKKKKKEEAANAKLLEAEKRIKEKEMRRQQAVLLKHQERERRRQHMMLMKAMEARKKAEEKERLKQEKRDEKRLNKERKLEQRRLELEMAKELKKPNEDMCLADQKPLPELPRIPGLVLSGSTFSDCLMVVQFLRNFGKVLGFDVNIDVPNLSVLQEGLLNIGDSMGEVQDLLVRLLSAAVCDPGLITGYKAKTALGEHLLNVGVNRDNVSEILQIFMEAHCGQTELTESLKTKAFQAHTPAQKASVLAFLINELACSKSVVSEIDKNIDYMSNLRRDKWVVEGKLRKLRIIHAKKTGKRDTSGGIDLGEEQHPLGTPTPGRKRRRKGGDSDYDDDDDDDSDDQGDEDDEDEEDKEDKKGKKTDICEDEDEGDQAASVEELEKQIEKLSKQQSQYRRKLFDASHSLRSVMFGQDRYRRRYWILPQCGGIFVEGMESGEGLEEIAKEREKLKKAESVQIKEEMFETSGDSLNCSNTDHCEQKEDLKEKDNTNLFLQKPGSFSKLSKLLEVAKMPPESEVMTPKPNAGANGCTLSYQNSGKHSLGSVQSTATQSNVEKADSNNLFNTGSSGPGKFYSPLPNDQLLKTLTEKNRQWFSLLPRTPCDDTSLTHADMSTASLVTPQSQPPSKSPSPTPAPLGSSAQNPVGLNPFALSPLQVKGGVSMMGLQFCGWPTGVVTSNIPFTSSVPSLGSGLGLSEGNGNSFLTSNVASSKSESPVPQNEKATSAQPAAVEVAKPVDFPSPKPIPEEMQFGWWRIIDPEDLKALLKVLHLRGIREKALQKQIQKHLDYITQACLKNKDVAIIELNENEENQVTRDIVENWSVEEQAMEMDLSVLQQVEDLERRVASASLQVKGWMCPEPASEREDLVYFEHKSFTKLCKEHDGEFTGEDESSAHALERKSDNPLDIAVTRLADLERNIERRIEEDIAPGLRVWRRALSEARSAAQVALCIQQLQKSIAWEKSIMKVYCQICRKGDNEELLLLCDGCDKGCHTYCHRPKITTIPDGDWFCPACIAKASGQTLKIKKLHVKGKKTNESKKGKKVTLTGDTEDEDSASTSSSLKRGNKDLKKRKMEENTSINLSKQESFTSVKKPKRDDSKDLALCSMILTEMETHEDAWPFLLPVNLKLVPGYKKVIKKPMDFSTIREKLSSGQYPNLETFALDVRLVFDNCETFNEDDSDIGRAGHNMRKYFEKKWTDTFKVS", "assay": "Binding affinity to human partial length DNA-tagged BAZ2B expressed in bacterial by BROMOscan method"}, "[12]": {"target": "Bromodomain-containing protein 9 (Homo sapiens, UniProt Q9H8M2)", "sequence (Q9H8M2 whole entry, canonical isoform)": "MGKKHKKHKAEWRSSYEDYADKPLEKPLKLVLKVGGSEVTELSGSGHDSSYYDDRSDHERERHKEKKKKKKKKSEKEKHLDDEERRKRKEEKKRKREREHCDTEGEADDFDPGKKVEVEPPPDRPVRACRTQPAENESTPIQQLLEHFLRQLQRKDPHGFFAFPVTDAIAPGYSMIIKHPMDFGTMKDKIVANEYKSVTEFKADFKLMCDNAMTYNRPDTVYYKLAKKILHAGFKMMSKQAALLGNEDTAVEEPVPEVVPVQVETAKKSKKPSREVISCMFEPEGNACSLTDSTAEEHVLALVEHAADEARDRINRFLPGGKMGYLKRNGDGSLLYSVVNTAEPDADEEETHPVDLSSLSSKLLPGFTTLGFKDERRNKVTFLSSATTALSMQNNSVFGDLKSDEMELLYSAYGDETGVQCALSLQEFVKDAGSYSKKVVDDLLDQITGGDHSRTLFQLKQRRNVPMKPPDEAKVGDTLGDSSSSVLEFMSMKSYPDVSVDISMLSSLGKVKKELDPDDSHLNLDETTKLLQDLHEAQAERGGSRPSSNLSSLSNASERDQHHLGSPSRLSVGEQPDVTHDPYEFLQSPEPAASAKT", "assay": "Binding affinity to human partial length DNA-tagged BRD9 isoform 1 expressed in bacteria by BROMOscan method"}, "[13]": {"target": "Chromatin remodeling regulator CECR2 (Homo sapiens, UniProt Q9BXF3)", "sequence (Q9BXF3 whole entry)": "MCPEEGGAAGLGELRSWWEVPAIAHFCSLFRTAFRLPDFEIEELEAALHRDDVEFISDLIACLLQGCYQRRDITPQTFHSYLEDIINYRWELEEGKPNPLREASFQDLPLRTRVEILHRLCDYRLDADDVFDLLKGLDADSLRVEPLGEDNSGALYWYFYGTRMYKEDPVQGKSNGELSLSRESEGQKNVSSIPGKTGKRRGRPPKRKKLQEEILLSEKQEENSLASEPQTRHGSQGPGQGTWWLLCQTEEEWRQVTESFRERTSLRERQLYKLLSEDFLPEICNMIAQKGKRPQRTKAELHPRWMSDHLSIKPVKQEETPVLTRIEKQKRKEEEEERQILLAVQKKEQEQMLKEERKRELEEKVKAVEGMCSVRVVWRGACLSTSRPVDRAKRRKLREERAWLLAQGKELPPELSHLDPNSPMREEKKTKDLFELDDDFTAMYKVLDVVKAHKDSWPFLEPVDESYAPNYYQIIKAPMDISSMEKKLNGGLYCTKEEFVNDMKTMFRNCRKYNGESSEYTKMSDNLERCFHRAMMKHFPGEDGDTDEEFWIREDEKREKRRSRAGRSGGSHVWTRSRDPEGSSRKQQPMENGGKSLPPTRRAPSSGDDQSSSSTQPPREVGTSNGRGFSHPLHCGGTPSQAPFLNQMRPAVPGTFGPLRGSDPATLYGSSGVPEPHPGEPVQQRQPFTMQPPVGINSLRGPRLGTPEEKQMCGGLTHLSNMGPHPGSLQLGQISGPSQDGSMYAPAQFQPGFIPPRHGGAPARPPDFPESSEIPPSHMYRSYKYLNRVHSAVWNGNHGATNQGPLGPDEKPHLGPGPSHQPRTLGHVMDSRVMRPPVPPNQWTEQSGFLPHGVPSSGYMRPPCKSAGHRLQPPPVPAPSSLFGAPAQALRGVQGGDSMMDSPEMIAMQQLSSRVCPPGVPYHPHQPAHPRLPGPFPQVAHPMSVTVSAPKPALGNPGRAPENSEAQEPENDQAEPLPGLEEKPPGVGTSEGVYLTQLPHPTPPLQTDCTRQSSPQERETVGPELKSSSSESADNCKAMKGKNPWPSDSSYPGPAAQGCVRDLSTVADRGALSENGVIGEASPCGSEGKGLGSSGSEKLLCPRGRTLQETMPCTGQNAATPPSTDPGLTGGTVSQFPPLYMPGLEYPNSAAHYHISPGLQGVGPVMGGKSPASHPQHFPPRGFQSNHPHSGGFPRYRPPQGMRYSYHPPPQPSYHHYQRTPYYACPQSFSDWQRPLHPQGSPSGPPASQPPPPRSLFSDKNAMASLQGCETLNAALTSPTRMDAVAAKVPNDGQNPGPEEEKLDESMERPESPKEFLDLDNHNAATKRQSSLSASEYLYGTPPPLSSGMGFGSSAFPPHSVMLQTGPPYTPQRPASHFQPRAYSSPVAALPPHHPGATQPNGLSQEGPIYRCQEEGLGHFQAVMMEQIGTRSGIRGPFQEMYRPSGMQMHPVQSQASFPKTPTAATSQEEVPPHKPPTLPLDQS", "assay": "Binding affinity to human partial length DNA-tagged CECR2 expressed in bacteria by BROMOscan method"}, "[14]": {"target": "Histone acetyltransferase p300 (Homo sapiens, UniProt Q09472)", "assay": "Binding affinity to human partial length DNA-tagged EP300 expressed in bacteria by BROMOscan method"}, "[15]": {"target": "Nucleosome-remodeling factor subunit BPTF (Homo sapiens, UniProt Q12830)", "assay": "Binding affinity to human partial length DNA-tagged FALZ isoform1 expressed in bacteria by BROMOscan method"}, "[16]": {"target": "Histone acetyltransferase KAT2A (Homo sapiens, UniProt Q92830)", "assay": "Binding affinity to human partial length DNA-tagged GCN5L2 expressed in bacteria by BROMOscan method"}, "[17]": {"target": "Histone acetyltransferase KAT2B (Homo sapiens, UniProt Q92831)", "sequence (Q92831 whole entry)": "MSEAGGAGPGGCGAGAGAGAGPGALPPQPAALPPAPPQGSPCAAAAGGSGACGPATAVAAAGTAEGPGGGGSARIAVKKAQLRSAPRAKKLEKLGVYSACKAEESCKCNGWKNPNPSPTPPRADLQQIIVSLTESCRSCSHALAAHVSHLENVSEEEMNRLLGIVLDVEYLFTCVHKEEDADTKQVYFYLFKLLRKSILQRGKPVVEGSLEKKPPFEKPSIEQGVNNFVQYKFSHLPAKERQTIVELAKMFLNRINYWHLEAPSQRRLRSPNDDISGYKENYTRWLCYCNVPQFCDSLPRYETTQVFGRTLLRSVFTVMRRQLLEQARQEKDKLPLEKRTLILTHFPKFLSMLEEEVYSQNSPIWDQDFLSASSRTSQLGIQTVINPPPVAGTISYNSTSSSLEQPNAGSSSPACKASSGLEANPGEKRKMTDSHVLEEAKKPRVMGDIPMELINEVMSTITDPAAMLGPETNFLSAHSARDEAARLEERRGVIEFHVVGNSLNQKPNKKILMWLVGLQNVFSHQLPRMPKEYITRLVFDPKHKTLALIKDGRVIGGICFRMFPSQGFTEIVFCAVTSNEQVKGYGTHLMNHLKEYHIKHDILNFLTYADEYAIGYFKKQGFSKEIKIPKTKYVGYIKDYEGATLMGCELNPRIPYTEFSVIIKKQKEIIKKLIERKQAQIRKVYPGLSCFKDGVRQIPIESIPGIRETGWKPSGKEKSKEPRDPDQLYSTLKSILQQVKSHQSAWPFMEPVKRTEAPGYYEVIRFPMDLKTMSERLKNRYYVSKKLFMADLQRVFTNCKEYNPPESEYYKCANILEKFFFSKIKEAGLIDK", "assay": "Binding affinity to human partial length DNA-tagged PCAF expressed in mammalian expression system by BROMOscan method"}, "[18]": {"target": "SWI/SNF-related matrix-associated actin-dependent regulator of chromatin subfamily A member 2 (Homo sapiens, UniProt P51531)", "assay": "Binding affinity to human partial length DNA-tagged SMARCA2 expressed in bacteria by BROMOscan method"}, "[19]": {"target": "Transcription intermediary factor 1-alpha (Homo sapiens, UniProt O15164)", "assay": "Binding affinity to human partial length DNA-tagged TRIM24(PHD,Bromo.) expressed in bacteria by BROMOscan method"}, "[20]": {"target": "E3 ubiquitin-protein ligase TRIM33 (Homo sapiens, UniProt Q9UPN9)", "assay": "Binding affinity to human partial length DNA-tagged TRIM33(PHD,Bromo.) expressed in bacteria by BROMOscan method"}, "[21]": {"target": "T2, Bromodomain-containing protein 2", "assay": "Selectivity ratio of Kd for human partial length DNA-tagged BRD2 isoform 1 BD1 to Kd for human partial length DNA-tagged BRD2 isoform 1 BD2"}, "[22]": {"target": "T1, Bromodomain-containing protein 3", "assay": "Selectivity ratio of Kd for human partial length DNA-tagged BRD3 BD1 to Kd for human partial length DNA-tagged BRD3 BD2"}, "Homo sapiens": {"species": "Homo sapiens", "assay": "Selectivity ratio of IC50 for human BRD2 BD1 to IC50 for human BRD2 BD2"}, "[23]": {"target": "Bromodomain-containing protein 4 (Homo sapiens, UniProt O60885, Y390A)"}, "[24]": {"target": "Bromodomain-containing protein 4 (Homo sapiens, UniProt O60885, Y97A)"}, "PBMC": {"system": "PBMC", "assay": "cells", "conditions": "Homo sapiens, read-out: pIC50 (converted)", "description": "Antiinflammatory activity in human PBMC assessed as inhibition of LPS-induced MCP1 release preincubated for 30 mins followed by LPS challenge measured after 24 hrs by immunoassay"}},
  "note": "pIC50, pKd: −log10 of the molar value.",
  "data": [
    {"smiles": "CC(=O)N1c2ccc(C3=CCNCC3)cc2N(Cc2ccccc2CO)C[C@@H]1C1CC1", "values": [
      {"measurement": "pIC50", "setting": "[1]", "result": 5.90},
      {"measurement": "Papp", "setting": "[2]", "result": 11, "unit": "×10⁻⁶ cm/s"},
      {"measurement": "solubility", "setting": "[3]", "result": "≥ 418", "unit": "µM"},
      {"measurement": "solubility at 16 h", "setting": "[4]", "result": 386, "unit": "µg/mL"},
      {"measurement": "pIC50", "setting": "Blood", "result": 6.00},
      {"measurement": "pKd", "setting": "[5]", "result": 8.18},
      {"measurement": "pKd", "setting": "[6]", "result": 5.88},
      {"measurement": "pKd", "setting": "[7]", "result": 6.04},
      {"measurement": "pKd", "setting": "[8]", "result": 7.71},
      {"measurement": "pKd", "setting": "[9]", "result": 4.84},
      {"measurement": "pKd", "setting": "[10]", "result": "< 4.52"},
      {"measurement": "pKd", "setting": "[11]", "result": "< 4.52"},
      {"measurement": "pKd", "setting": "[12]", "result": "< 4.52"},
      {"measurement": "pKd", "setting": "[13]", "result": "< 4.52"},
      {"measurement": "pKd", "setting": "[14]", "result": "< 4.52"},
      {"measurement": "pKd", "setting": "[15]", "result": "< 4.52"},
      {"measurement": "pKd", "setting": "[16]", "result": "< 4.52"},
      {"measurement": "pKd", "setting": "[17]", "result": "< 4.52"},
      {"measurement": "pKd", "setting": "[18]", "result": "< 4.52"},
      {"measurement": "pKd", "setting": "[19]", "result": "< 4.52"},
      {"measurement": "pKd", "setting": "[20]", "result": "< 4.52"},
      {"measurement": "Selectivity ratio", "setting": "[21]", "result": 41},
      {"measurement": "Selectivity ratio", "setting": "[22]", "result": 47},
      {"measurement": "Ratio IC50", "setting": "Homo sapiens", "result": 8},
      {"measurement": "pIC50", "setting": "[23]", "result": 5.50},
      {"measurement": "pIC50", "setting": "[24]", "result": 7.20},
      {"measurement": "IC50", "setting": "PBMC", "result": 39.8, "unit": "nM"}
    ]}
  ]
}
